From ChEMBL document CHEMBL1821601, “Impact of passive permeability and gut efflux transport on the oral bioavailability of novel series of piperidine-based renin inhibitors in rodents” (Bioorg Med Chem Lett, 2011)

Assays:
[1] = Oral bioavailability in rat at 3 mg/kg pre-dosed with 50 mg/kg, po of Pgp and Bcrp inhibitor elacridar 15 mins before drug challenge; assay type: ADME, organism-based; details: in vivo
[2] = AUC (0 to 24 hrs) in rat at 3 mg/kg, po pre-dosed with 50 mg/kg, po of Pgp and Bcrp inhibitor elacridar 15 mins before drug challenge; assay type: ADME, organism-based; set-up: dose 3 mg/kg, time < 24 hr, route oral; details: plasma
[3] = Plasma clearance in rat at 5 mg/kg, iv; assay type: ADME, organism-based; set-up: dose 5 mg/kg, route intravenous
[4] = Oral bioavailability in rat at 10 mg/kg; assay type: ADME, organism-based; details: in vivo
[5] = (§1) Oral bioavailability in rat at 3 mg/kg; assay type: ADME, organism-based; details: in vivo
[6] = (§2) Oral bioavailability in rat at 30 mg/kg; assay type: ADME, organism-based; details: in vivo
[7] = Plasma clearance in rat at 0.5 mg/kg, iv; assay type: ADME, organism-based; set-up: dose 0.5 mg/kg, route intravenous
rat Mdr1a = assay: Apparent permeability across pig LLC-PK1 cells transfected with rat Mdr1a; assay type: ADME, cell-based, Sus scrofa
[8] = as §1; assay type: ADME, organism-based; details: in vivo; remark: listed apart in the source
[9] = Drug uptake in MDR1a-deficient FVB mouse brain at 5 mg/kg, iv after 24 hrs; assay type: ADME, organism-based; set-up: dose 5 mg/kg, route intravenous; details: read-out: Drug uptake
[10] = AUC (0 to 24 hrs) in MDR1a-deficient FVB mouse at 30 mg/kg, po; assay type: ADME, organism-based; set-up: time < 24 hr, dose 30 mg/kg, route oral; details: plasma
Mus musculus [11] = assay: Ratio of blood clearance in MDR1a-deficient FVB mouse to blood clearance in FVB mouse expressing wild type MDR1a at 30 mg/kg, po and 5 mg/kg, iv; assay type: ADME, organism-based; details: in vivo
Mus musculus [12] = assay: Ratio of AUC (0 to 24 hrs) in MDR1a-deficient FVB mouse to AUC (0 to 24 hrs) in FVB mouse expressing wild type MDR1a at 30 mg/kg, po; assay type: ADME, organism-based; set-up: dose 30 mg/kg, route oral; details: in vivo
Brain [13] = assay: Ratio of drug uptake in MDR1a-deficient FVB mouse brain to drug uptake in FVB mouse expressing wild type MDR1a brain at 5 mg/kg, iv after 24 hrs; assay type: ADME, organism-based; set-up: dose 5 mg/kg, route intravenous; details: in vivo
[14] = Blood clearance in MDR1a-deficient FVB mouse at 30 mg/kg, po and 5 mg/kg, iv; assay type: ADME, organism-based; details: whole blood
[15] = AUC (0 to 24 hrs) in FVB mouse expressing wild type MDR1a at 30 mg/kg, po; assay type: ADME, organism-based; set-up: time < 24 hr, dose 30 mg/kg, route oral; details: plasma
[16] = Oral bioavailability in FVB mouse expressing wild type MDR1a at 30 mg/kg; assay type: ADME, organism-based; details: in vivo
Mus musculus [17] = assay: Volume of distribution at steady state in FVB mouse expressing wild type MDR1a at 30 mg/kg, po and 5 mg/kg, iv; assay type: ADME, organism-based; details: in vivo
[18] = Drug uptake in FVB mouse expressing wild type MDR1a brain at 5 mg/kg, iv after 24 hrs; assay type: ADME, organism-based; set-up: dose 5 mg/kg, route intravenous; details: read-out: Drug uptake
Mus musculus [19] = assay: Volume of distribution at steady state in MDR1a-deficient FVB mouse at 30 mg/kg, po and 5 mg/kg, iv; assay type: ADME, organism-based; details: in vivo
Mus musculus [20] = assay: Ratio of oral bioavailability in MDR1a-deficient FVB mouse to oral bioavailability in FVB mouse expressing wild type MDR1a at 30 mg/kg; assay type: ADME, organism-based; details: in vivo
[21] = Drug uptake in FVB mouse expressing wild type MDR1a brain at 30 mg/kg, po after 24 hrs; assay type: ADME, organism-based; set-up: dose 30 mg/kg, route oral; details: read-out: Drug uptake
Brain [22] = assay: Ratio of drug uptake in MDR1a-deficient FVB mouse brain to drug uptake in FVB mouse expressing wild type MDR1a brain at 30 mg/kg, po after 24 hrs; assay type: ADME, organism-based; set-up: dose 30 mg/kg, route oral; details: in vivo
Mus musculus [23] = assay: Ratio of volume of distribution at steady state in MDR1a-deficient FVB mouse to volume of distribution at steady state in FVB mouse expressing wild type MDR1a at 30 mg/kg, po and 5 mg/kg, iv; assay type: ADME, organism-based; details: in vivo
[24] = Blood clearance in FVB mouse expressing wild type MDR1a at 30 mg/kg, po and 5 mg/kg, iv; assay type: ADME, organism-based; details: whole blood
[25] = Drug uptake in MDR1a-deficient FVB mouse brain at 30 mg/kg, po after 24 hrs; assay type: ADME, organism-based; set-up: dose 30 mg/kg, route oral; details: read-out: Drug uptake
[26] = Oral bioavailability in MDR1a-deficient FVB mouse at 30 mg/kg; assay type: ADME, organism-based; details: in vivo
[27] = Lipophilicity, Log D of the compound at pH 7 by RP-HPLC analysis; assay type: physicochemical; details: buffer
[28] = Apparent Passive permeability across pig LLC-PK1 cells; assay type: ADME, cell-based, Sus scrofa
[29] = Oral bioavailability in dog at 3 mg/kg; assay type: ADME, organism-based, Canis lupus familiaris; details: in vivo
[30] = Plasma clearance in rat at 30 mg/kg, po and 5 mg/kg, iv; assay type: ADME, organism-based
[31] = as §2; assay type: ADME, organism-based; details: in vivo; remark: listed apart in the source
[32] = Plasma clearance in dog at 3 mg/kg, po and 1 mg/kg, iv; assay type: ADME, organism-based, Canis lupus familiaris
[33] = Drug recovery in permanently bile-duct cannulated rat bile supplimented with artificial bile at 5 mg/kg, iv after 48 hrs by HPLC-MS/MS analysis; assay type: ADME, organism-based; set-up: dose 5 mg/kg, route intravenous; details: read-out: Drug uptake
[34] = Drug recovery in permanently bile-duct cannulated rat urine supplimented with artificial bile at 20 mg/kg, po after 48 hrs by HPLC-MS/MS analysis; assay type: ADME, organism-based; set-up: dose 20 mg/kg, route oral; details: read-out: Drug uptake
[35] = Drug recovery in permanently bile-duct cannulated rat bile supplimented with artificial bile at 20 mg/kg, po after 48 hrs by HPLC-MS/MS analysis; assay type: ADME, organism-based; set-up: dose 20 mg/kg, route oral; details: read-out: Drug uptake
[36] = Drug recovery in permanently bile-duct cannulated rat supplimented with artificial bile at 5 mg/kg, iv after 48 hrs by HPLC-MS/MS analysis; assay type: ADME, organism-based; set-up: dose 5 mg/kg, route intravenous; details: in vivo, read-out: Drug uptake
[37] = Drug recovery in permanently bile-duct cannulated rat urine supplimented with artificial bile at 5 mg/kg, iv after 48 hrs by HPLC-MS/MS analysis; assay type: ADME, organism-based; set-up: dose 5 mg/kg, route intravenous; details: read-out: Drug uptake
[38] = Drug recovery in permanently bile-duct cannulated rat supplimented with artificial bile at 20 mg/kg, po after 48 hrs by HPLC-MS/MS analysis; assay type: ADME, organism-based; set-up: dose 20 mg/kg, route oral; details: in vivo, read-out: Drug uptake
[39] = Drug recovery in permanently bile-duct cannulated rat feces supplimented with artificial bile at 5 mg/kg, iv after 48 hrs by HPLC-MS/MS analysis; assay type: ADME, organism-based; set-up: dose 5 mg/kg, route intravenous; details: faeces, read-out: Drug uptake
[40] = Drug recovery in permanently bile-duct cannulated rat feces supplimented with artificial bile at 20 mg/kg, po after 48 hrs by HPLC-MS/MS analysis; assay type: ADME, organism-based; set-up: dose 20 mg/kg, route oral; details: faeces, read-out: Drug uptake
LLC-PK1 = assay: Ratio of permeability from basolateral to apical side to apical to basolateral side of pig LLC-PK1 cells transfected with rat Mdr1a; assay type: ADME, cell-based, Sus scrofa
[41] = Oral bioavailability in rat at 0.3 mg/kg; assay type: ADME, organism-based; details: in vivo
[42] = Oral bioavailability in rat at 0.3 mg/kg pre-dosed with 50 mg/kg, po of Pgp and Bcrp inhibitor elacridar 15 mins before drug challenge; assay type: ADME, organism-based; details: in vivo
[43] = Cmax in rat plasma at 3 mg/kg, po; assay type: ADME, organism-based; set-up: dose 3 mg/kg, route oral

COCCCc1cc(Cl)c(Cl)c(CN(C(=O)[C@H]2CNCC[C@@H]2c2ccn(C)c(=O)c2)C2CC2)c1
bioavailability [1]: 20%
AUC(0-t) at 24 h [2]: 0.033 µM·h
clearance [3]: 67 mL/min/kg
bioavailability [4]: 21%
bioavailability [5]: 2%
bioavailability [6]: 24%
clearance [7]: 57 mL/min/kg
Papp (rat Mdr1a): 3 ×10⁻⁶ cm/s
bioavailability [8]: 2%

COCCCc1cc(CN(C(=O)[C@H]2CNCC[C@@H]2c2ccn(C)c(=O)c2)C2CC2)cc(Br)c1C
concentration at 24 h [9]: 239 nM
AUC(0-t) at 24 h [10]: 4 µM·h
bioavailability [1]: 31%
fold change (FC) (Mus musculus [11]): 0.9
AUC(0-t) at 24 h [2]: 0.044 µM·h
fold change (FC) (Mus musculus [12]): 5
fold change (FC) (Brain [13]): 32
clearance [14]: 72 mL/min/kg
clearance [3]: 75 mL/min/kg
AUC(0-t) at 24 h [15]: 0.8 µM·h
bioavailability [16]: 7%
bioavailability [4]: 7%
Vdss (Mus musculus [17]): 3.7 L/kg
concentration at 24 h [18]: 7.3 nM
Vdss (Mus musculus [19]): 4.7 L/kg
fold change (FC) (Mus musculus [20]): 4
bioavailability [5]: 3%
concentration at 24 h [21]: 8 nM
fold change (FC) (Brain [22]): 63
bioavailability [6]: 17%
clearance [7]: 125 mL/min/kg
fold change (FC) (Mus musculus [23]): 1.3
clearance [24]: 82 mL/min/kg
concentration at 24 h [25]: 504 nM
Papp (rat Mdr1a): 2 ×10⁻⁶ cm/s
bioavailability [26]: 29%
bioavailability [8]: 6%

COCCc1ccc(Cl)c(CN(C(=O)[C@H]2CNCC[C@]2(O)c2ccc(F)c(F)c2)C2CC2)c1
logD [27]: 3.1
Papp [28]: 11 ×10⁻⁶ cm/s
bioavailability [8]: 16%

COCCCc1cc(CN(C(=O)[C@H]2CNCC[C@@H]2c2ccc(OCCOc3c(Cl)cc(C)cc3Cl)cc2)C2CC2)cc(OCCOC)c1.Cl
bioavailability [29]: 44%
clearance [30]: 11 mL/min/kg
bioavailability [31]: 27%
clearance [32]: 26 mL/min/kg

COCCCc1cc(CN(C(=O)[C@H]2CNCC[C@@H]2c2ccn(C)c(=O)c2)C2CC2)cc(OCCOC)c1.Cl
bioavailability [29]: 1%
dose excreted at 48 h [33]: 25%
clearance [30]: 31 mL/min/kg
dose excreted at 48 h [34]: 2%
bioavailability [31]: 3%
clearance [32]: 9.2 mL/min/kg
clearance [3]: 31 mL/min/kg
dose excreted at 48 h [35]: 0.1%
dose excreted at 48 h [36]: 45%
logD [27]: 0.9
dose excreted at 48 h [37]: 10%
dose excreted at 48 h [38]: 75%
bioavailability [6]: 3%
clearance [7]: 43 mL/min/kg
dose excreted at 48 h [39]: 10%
Papp [28]: 2 ×10⁻⁶ cm/s
dose excreted at 48 h [40]: 73%
Papp (rat Mdr1a): < 3 ×10⁻⁶ cm/s
bioavailability [8]: 0.5%

COCCOc1cc(CCOC)cc(CN(C(=O)[C@H]2CNCC[C@]2(O)c2ccc(F)c(F)c2)C2CC2)c1
bioavailability [1]: 24%
Ratio (LLC-PK1): 19
logD [27]: 2.6
bioavailability [41]: 17%
bioavailability [42]: 14%
bioavailability [5]: 29%
Papp [28]: 22 ×10⁻⁶ cm/s
Papp (rat Mdr1a): 22 ×10⁻⁶ cm/s
bioavailability [8]: 29%

COCCc1ccc(Cl)c(CN(C(=O)[C@H]2CNCC[C@@H]2c2ccn(C)c(=O)c2)C2CC2)c1
logD [27]: 1
Papp [28]: 1 ×10⁻⁶ cm/s
bioavailability [8]: 1%

COc1cc2c(cc1OC)CN(CCc1ccc(NC(=O)c3cccc4c(=O)c5cccc(OC)c5[nH]c34)cc1)CC2 [ELACRIDAR]
Cmax [43]: 200 nM
